Source: US20240124434A1, “ATF6 INHIBITORS AND USES THEREOF” (Altos Labs, Inc., priority 2018, published 2024)
Where two headings read alike, the source gives them in different places.

System: ATF6
Test: ERSE ATF6-luciferase reporter assay (thapsigargin-induced ER stress)
Format: cell-based, human
Details: Homo sapiens, U2OS
Experimental: Human bone osteosarcoma (U2-OS) cells were obtained from the American Type Culture Collection (ATCC HTB-96, ATCC Manassas, VA) and were cultured with growing medium containing Dulbecco's Modified Eagle's Medium (DMEM) (Cat. No.:SH30023.02, HyClone) supplemented with fetal bovine serum (FBS) 10% (Cat. No.: 16000044, Gibco) and 1% penicillin-streptomycin antibiotic cocktail (Cat. No.: SV30010, Hyclone).
Cignal Lenti ATF6 luc reporter (Qiagen #CLS-6031L) was used to produce a stable cell line in U2-OS cells. […] The number of response elements as well as the intervening sequence between response elements has been experimentally optimized to maximize the signal to noise ratio.
Compounds were prepared as 10 mM stock solutions and stored at −80° C.
U2-OS ATF6 luc reporter cells were thawed 3-4 days and split once prior to assays. […] At the day of experiment, cells were pre-treated for 30 min with 50 μL growing medium containing either vehicle (dimethyl sulfoxide (DMSO)) (Cat. No.: D2650, Sigma-Aldrich) or 1 μM test compound. After the pre-incubation time, 50 μL of a solution containing 0.2 μM thapsigargin (Tg)(an ER stress inducer) was added to respective wells. This Tg solution also contained vehicle or test compounds at 1 μM. The final concentration of DMSO in each well was kept at 0.3%. Plates were incubated for 8 hr in humidified chambers.
Finally, after 8 hr, plates were cooled to room temperature for 10 min prior to luciferase assays. Luciferase reactions were performed using Luciferase Assay System (Cat. No.: E4550, Promega). Briefly, each well was washed with 100 μl of PBS1X and then 20 μl of lysis reagent were added into each well. Plates were shaken for 10 min, then 50 μl of Luciferase Assay Reagent were added to each well and luminescence was read with an integration time of 1 s and a gain of 110 in a Synergy 4 Microplate reader.
For the assessment of the half-maximal inhibitory concentration (IC50) for selected compounds, dose-response assays were performed. Compounds were serially diluted using DMSO starting at 30 μM until 1 nM. The assays were run as described above.

[1] = 8 h, 1 μM test compound, thapsigargin-induced ER stress, U2-OS ATF6 luc reporter cells, 8 hr, read-out: Inh. ATF6-Luc @ 1 μM [%]
[2] = dose-response 30 μM to 1 nM, thapsigargin-induced ER stress, U2-OS ATF6 luc reporter cells, read-out: IC50 ATF6-Luc reporter
[3] = 1 μM test compound, thapsigargin-induced ER stress, U2-OS ATF6 luc reporter cells, 8 hr, read-out: Inh. ATF6-Luc @ 1 μM [%]

| IC50 [2] [µM] | SMILES | inhibition at 1 µM [1] [%] | further results |
| --- | --- | --- | --- |
| > 10 | O=C(Nc1cnn(C(c2ccc(C(F)(F)F)cc2C(F)(F)F)C2CC2)c1)c1cc(-c2ccccn2)on1 (stereo not drawn) [Compound 33, N-(1-((2,4-bis(trifluoromethyl)phenyl)(cyclopropyl)methyl)-1H-pyrazol-4-yl)-5-(pyridin-2-yl)isoxazole-3-carboxamide] | < 25 | – |
| > 10 | C[C@H](c1ccc(C(F)(F)F)cc1C(F)(F)F)n1cc(NC(=O)c2cc(-c3ncccc3Cl)on2)cn1 [Compound 34, (R)-N-(1-(1-(2,4-bis(trifluoromethyl)phenyl)ethyl)-1H-pyrazol-4-yl)-5-(3-chloropyridin-2-yl)isoxazole-3-carboxamide] | < 25 | – |
| > 10 | C[C@@H](c1ccc(C(F)(F)F)cc1C(F)(F)F)n1cc(NC(=O)c2cc(-c3ncccc3Cl)on2)cn1 [Compound 35, (S)-N-(1-(1-(2,4-bis(trifluoromethyl)phenyl)ethyl)-1H-pyrazol-4-yl)-5-(3-chloropyridin-2-yl)isoxazole-3-carboxamide] | < 25 | – |
| > 10 | C[C@H](c1ccc(C(F)(F)F)cc1C(F)(F)F)n1cc(NC(=O)c2cc(-c3cccnc3)on2)cn1 [Compound 36, (R)-N-(1-(1-(2,4-bis(trifluoromethyl)phenyl)ethyl)-1H-pyrazol-4-yl)-5-(pyridin-3-yl)isoxazole-3-carboxamide] | < 25 | – |
| > 10 | C[C@@H](c1ccc(C(F)(F)F)cc1C(F)(F)F)n1cc(NC(=O)c2cc(-c3cccnc3)on2)cn1 [Compound 37, (S)-N-(1-(1-(2,4-bis(trifluoromethyl)phenyl)ethyl)-1H-pyrazol-4-yl)-5-(pyridin-3-yl)isoxazole-3-carboxamide] | < 25 | – |
| – | C[C@@H](c1ccc(C(F)(F)F)cc1C(F)(F)F)n1cc(NC(=O)c2cc(-c3ccccn3)no2)cn1 [Compound 77, (S)—N-(1-(1-(2,4-bis(trifluoromethyl)phenyl)ethyl)-1H-pyrazol-4-yl)-3-(pyridin-2-yl)isoxazole-5-carboxamide] | – | inhibition at 1 µM (8 h, read-out: Inh. ATF6-Luc @ 1 μM [%], 1 μM test compound, thapsigargin-induced ER stress, U2-OS ATF6 luc reporter cells, 8 hr): < 25%; IC50 (read-out: IC50 ATF6-Luc reporter [μM], dose-response 30 μM to 1 nM, thapsigargin-induced ER stress, U2-OS ATF6 luc reporter cells): > 10 µM |
| – | CC(c1ccc(C(F)(F)F)cc1C(F)(F)F)n1cc(NC(=O)c2csc(-c3ccccn3)n2)cn1 (stereo not drawn) [Compound 79, N-(1-(1-(2,4-bis(trifluoromethyl)phenyl)ethyl)-1H-pyrazol-4-yl)-2-(pyridin-2-yl)thiazole-4-carboxamide] | – | inhibition at 1 µM (8 h, read-out: Inh. ATF6-Luc @ 1 μM [%]): < 25%; IC50 (read-out: IC50 ATF6-Luc reporter [μM]): > 10 µM |
| > 10 | CC(c1ccc(C(F)(F)F)cc1C(F)(F)F)n1cc(NC(=O)c2cnc(-c3ccco3)s2)cn1 (stereo not drawn) [Compound 80, N-(1-(1-(2,4-bis(trifluoromethyl)phenyl)ethyl)-1H-pyrazol-4-yl)-2-(furan-2-yl)thiazole-5-carboxamide] | < 25 | – |
| > 10 | CC(c1ccc(C(F)(F)F)cc1C(F)(F)F)n1cc(NC(=O)/C=C/c2ccccn2)cn1 (stereo not drawn) [Compound 83, (E)—N-(1-(1-(2,4-bis(trifluoromethyl)phenyl)ethyl)-1H-pyrazol-4-yl)-3-(pyridin-2-yl)acrylamide] | < 25 | – |
| > 10 | C[C@H](c1ccc(C(F)(F)F)cc1C(F)(F)F)n1cc(NC(=O)/C=C/c2ccco2)cn1 [Compound 85, (R,E)—N-(1-(1-(2,4-bis(trifluoromethyl)phenyl)ethyl)-1H-pyrazol-4-yl)-3-(furan-2-yl)acrylamide] | < 25 | – |
| > 10 | C[C@@H](c1ccc(C(F)(F)F)cc1C(F)(F)F)n1cc(NC(=O)/C=C/c2ccco2)cn1 [Compound 86, (S,E)—N-(1-(1-(2,4-bis(trifluoromethyl)phenyl)ethyl)-1H-pyrazol-4-yl)-3-(furan-2-yl)acrylamide] | < 25 | – |
| > 10 | Cc1nn(-c2ccc(C(F)(F)F)cc2C(F)(F)F)cc1NC(=O)/C=C/c1ccco1 [Compound 87, (E)—N-(1-(2,4-bis(trifluoromethyl)phenyl)-3-methyl-1H-pyrazol-4-yl)-3-(furan-2-yl)acrylamide] | < 25 | – |
| > 10 | COc1ccccc1-c1cc(C(=O)Nc2cnn([C@H](C)c3ccc(C(F)(F)F)cc3C(F)(F)F)c2)no1 [Compound 88, (R)N-(1-(1-(2,4-bis(trifluoromethyl)phenyl)ethyl)-1H-pyrazol-4-yl)-5-(2-methoxyphenyl)isoxazole-3-carboxamide] | < 25 | – |
| > 10 | COc1ccccc1-c1cc(C(=O)Nc2cnn([C@@H](C)c3ccc(C(F)(F)F)cc3C(F)(F)F)c2)no1 [Compound 89, (S)N-(1-(1-(2,4-bis(trifluoromethyl)phenyl)ethyl)-1H-pyrazol-4-yl)-5-(2-methoxyphenyl)isoxazole-3-carboxamide] | < 25 | – |
| > 10 | Cc1nn(-c2ccc(C(F)(F)F)cc2C(F)(F)F)cc1NC(=O)c1cc(-c2ccccn2)on1 [Compound 90, N-(1-(2,4-bis(trifluoromethyl)phenyl)-3-methyl-1H-pyrazol-4-yl)-5-(pyridin-2-yl)isoxazole-3-carboxamide] | < 25 | – |
| > 10 | Cc1nn(Cc2ccc(C(F)(F)F)cc2C(F)(F)F)cc1NC(=O)c1cc(-c2ccco2)on1 [Compound 92, N-(1-(2,4-bis(trifluoromethyl)benzyl)-3-methyl-1H-pyrazol-4-yl)-5-(furan-2-yl)isoxazole-3-carboxamide] | < 25 | – |
| > 10 | Cc1nn(-c2ccc(C(F)(F)F)cc2C(F)(F)F)cc1NC(=O)c1cc(-c2ccco2)on1 [Compound 94, N-(1-(2,4-bis(trifluoromethyl)phenyl)-3-methyl-1H-pyrazol-4-yl)-5-(furan-2-yl)isoxazole-3-carboxamide] | < 25 | – |
| > 10 | Cc1c(NC(=O)/C=C/c2ccco2)cnn1Cc1ccc(C(F)(F)F)cc1C(F)(F)F [Compound 95, (E)—N-(1-(2,4-bis(trifluoromethyl)benzyl)-5-methyl-1H-pyrazol-4-yl)-3-(furan-2-yl)acrylamide] | < 25 | – |
| > 10 | Cc1nn(Cc2ccc(C(F)(F)F)cc2C(F)(F)F)cc1NC(=O)/C=C/c1ccco1 [Compound 96, (E)—N-(1-(2,4-bis(trifluoromethyl)benzyl)-3-methyl-1H-pyrazol-4-yl)-3-(furan-2-yl)acrylamide] | < 25 | – |
| > 10 | Cc1c(NC(=O)c2cc(-c3ccccn3)on2)cnn1[C@@H](C)c1ccc(C(F)(F)F)cc1C(F)(F)F [Compound 98, (S)—N-(1-(1-(2,4-bis(trifluoromethyl)phenyl)ethyl)-5-methyl-1H-pyrazol-4-yl)-5-(pyridin-2-yl)isoxazole-3-carboxamide] | < 25 | – |

| SMILES | IC50 [2] [µM] | inhibition at 1 µM [1] [%] | further results |
| --- | --- | --- | --- |
| CC(c1ccc(C(F)(F)F)cc1C(F)(F)F)n1cc(NC(=O)c2cc(-c3ccccn3)ccn2)cn1 (stereo not drawn) [Compound 81, N-(1-(1-(2,4-bis(trifluoromethyl)phenyl)ethyl)-1H-pyrazol-4-yl)-[2,4′-bipyridine]-2′-carboxamide] | > 10 | – | inhibition at 1 µM [3]: < 25% |
| CC(c1ccc(C(F)(F)F)cc1C(F)(F)F)n1cc(NC(=O)c2ccc(-c3ccccn3)cn2)cn1 (stereo not drawn) [Compound 82, N-(1-(1-(2,4-bis(trifluoromethyl)phenyl)ethyl)-1H-pyrazol-4-yl)-[2,3′-bipyridine]-6′-carboxamide] | > 10 | – | inhibition at 1 µM [3]: < 25% |
| O=C(/C=C/c1ccco1)Nc1cnn(Cc2ccc(C(F)(F)F)cc2C(F)(F)F)c1 [Compound 84, (E)—N-(1-(2,4-bis(trifluoromethyl)benzyl)-1H-pyrazol-4-yl)-3-(furan-2-yl)acrylamide] | > 10 | – | inhibition at 1 µM [3]: < 25% |
| COc1ccccc1-c1cc(C(=O)Nc2cnn(Cc3ccc(C(F)(F)F)cc3C(F)(F)F)c2)no1 [Compound 91, N-(1-(2,4-bis(trifluoromethyl)benzyl)-1H-pyrazol-4-yl)-5-(2-methoxyphenyl)isoxazole-3-carboxamide] | > 10 | – | inhibition at 1 µM [3]: < 25% |
